Laboratory results reported in BindingDB's records for doi:10.7270/Q28G8J4C (Broad Institute, 2009).
Counter-ions that a name gives are not always drawn.

Target: T1, POsterior Segregation (Caenorhabditis elegans, UniProt G5EF15)
T1 sequence (G5EF15 whole entry): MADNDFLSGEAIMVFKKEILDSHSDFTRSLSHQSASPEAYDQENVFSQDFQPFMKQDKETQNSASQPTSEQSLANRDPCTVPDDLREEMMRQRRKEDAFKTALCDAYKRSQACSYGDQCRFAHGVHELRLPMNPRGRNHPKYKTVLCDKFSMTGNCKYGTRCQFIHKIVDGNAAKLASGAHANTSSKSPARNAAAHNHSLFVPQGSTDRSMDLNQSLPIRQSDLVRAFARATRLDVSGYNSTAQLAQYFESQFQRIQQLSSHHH
Assay: inhibitors of POS-1/mex-3 RNA binding, dose response, biochemical, fluorescence polarization (AID 1964)

Row | Structure (SMILES) | EC50
1 | COc1cccc(C2C3CN(C)CCC3=C(C#N)C(=N)C2(C#N)C#N)c1OC (stereo unspecified) [6-Amino-8-(2,3-dimethoxy-phenyl)-2-methyl-2,3,8,8a-tetrahydro-1H-isoquinoline-5,7,7-tricarbonitrile] | 2.18 µM
2 | CCCN1CCC2=C(C#N)C(=N)C(C#N)(C#N)C(c3cc(OC)ccc3OC)C2C1 (stereo unspecified) [6-Amino-8-(2,5-dimethoxy-phenyl)-2-propyl-2,3,8,8a-tetrahydro-1H-isoquinoline-5,7,7-tricarbonitrile] | 27.9 µM
3 | N#CC1=C2CCOCC2C(c2cccnc2)C(C#N)(C#N)C1=N (stereo unspecified) [6-Amino-8-pyridin-3-yl-8,8a-dihydro-1H,3H-isochromene-5,7,7-tricarbonitrile] | > 300 µM
4 | O=C(Cc1nc2cc([N+](=O)[O-])ccc2[nH]c1=O)c1ccccc1 [6-Nitro-3-(2-oxo-2-phenyl-ethylidene)-3,4-dihydro-1H-quinoxalin-2-one] | 20.1 µM
5 | CN1CCC2=C(C#N)C(=N)C(C#N)(C#N)C(c3ccncc3)C2C1 (stereo unspecified) [6-amino-2-methyl-8-(4-pyridyl)-1,3,8,8a-tetrahydroisoquinoline-5,7,7-tricarbonitrile] | 52.9 µM
6 | CCOC(=O)C1=C(C)OC(=N)C(C#N)C1c1ccc(O)c(OC)c1 (stereo unspecified) [6-amino-5-cyano-4-(4-hydroxy-3-methoxyphenyl)-2-methyl-4H-pyran-3-carboxylic acid ethyl ester] | > 300 µM
7 | CN1CCC2=C(C#N)C(=N)C(C#N)(C#N)C(c3cccc(Cl)c3Cl)C2C1 (stereo unspecified) [6-azanyl-8-[2,3-bis(chloranyl)phenyl]-2-methyl-1,3,8,8a-tetrahydroisoquinoline-5,7,7-tricarbonitrile] | 14.4 µM
8 | CCC(C)N1C(=O)C(=CNNc2nc3c(c(=O)n(C)c(=O)n3C)n2C)C(=O)NC1=S (stereo unspecified) [8-[2-[(Z)-(1-butan-2-yl-4,6-dioxo-2-sulfanylidene-1,3-diazinan-5-ylidene)methyl]hydrazinyl]-1,3,7-trimethylpurine-2,6-dione] | > 300 µM
9 | O=NC1CC2(CC(N=O)C1N=O)OCCO2 (stereo unspecified) [9-(hydroxyamino)-8-nitroso-1,4-dioxaspiro[4.5]dec-8-en-7-one oxime] | > 300 µM
10 | Cc1ccc(N=CC2Sc3ccccc3NC2=O)cc1 (stereo unspecified) [(2E)-2-(p-toluidinomethylene)-4H-1,4-benzothiazin-3-one] | > 300 µM
11 | CN(C)[C@@H]1C(=O)C(C(N)=O)C(=O)[C@@]2(O)C(=O)C3C(=O)c4c(O)cccc4[C@@](C)(O)[C@H]3[C@H](O)[C@@H]12 (stereo partly drawn) [(2E,4S,4aR,5S,5aR,6S,12aS)-2-[azanyl(oxidanyl)methylidene]-4-(dimethylamino)-6-methyl-5,6,10,11,12a-pentakis(oxidanyl)-4,4a,5,5a-tetrahydrotetracene-1,3,12-trione] | 65.8 µM
12 | COc1ccc(C=C2CCCC(C(=O)C(F)(F)F)C2=O)cc1OC (stereo unspecified) [(2E,6Z)-2-(3,4-dimethoxybenzylidene)-6-(2,2,2-trifluoro-1-hydroxyethylidene)cyclohexanone] | > 300 µM
13 | CN(C)c1ccc(O)c2c1CC1CC3C(N(C)C)C(=O)C(C(N)=O)C(=O)[C@@]3(O)C(=O)C1C2=O (stereo partly drawn) [(2E,12aS)-2-[azanyl(oxidanyl)methylidene]-4,7-bis(dimethylamino)-10,11,12a-tris(oxidanyl)-4a,5,5a,6-tetrahydro-4H-tetracene-1,3,12-trione;hydrochloride] | > 300 µM
14 | N#CC(C(=O)c1cc2ccccc2o1)c1nc2ccccc2s1 (stereo unspecified) [(2Z)-3-(1-benzofuran-2-yl)-2-(3H-1,3-benzothiazol-2-ylidene)-3-oxidanylidene-propanenitrile] | > 300 µM
15 | C=c1cc(O)c(CN(C)C)c2oc(=Cc3ccco3)c(O)c12 [(2Z)-7-[(dimethylamino)methyl]-2-(furan-2-ylmethylidene)-6-hydroxy-4-methyl-1-benzofuran-3-one] | 32.1 µM
16 | C[C@H]1c2cccc(O)c2C(=O)C2C(=O)[C@]3(O)C(=O)C(C(N)=O)C(=O)[C@@H](N(C)C)C3C(O)C21 (stereo partly drawn) [(2Z,4S,5S,6R,12aS)-2-[amino(hydroxy)methylidene]-4-(dimethylamino)-5,10,11,12a-tetrahydroxy-6-methyl-4a,5,5a,6-tetrahydro-4H-tetracene-1,3,12-trione;ethanol;hydrate;hydrochloride] | > 300 µM

Row | Structure (SMILES) | EC50
17 | Cn1c2cc(=N)ccc-2c2ccc(N)cc2c1-c1ccccc1 [(3-amino-5-methyl-6-phenyl-phenanthridin-5-ium-8-yl)amine;bromide] | 13.5 µM
18 | O=C1N=c2ccccc2=C1NNc1cccc(Cl)c1 [(3E)-1H-indole-2,3-dione 3-[(3-chlorophenyl)hydrazone]] | 125 µM
19 | Cc1ccc2oc(=O)c(CC(=O)CC(C)C)nc2c1 [(3Z)-3-(2-keto-4-methyl-pentylidene)-6-methyl-4H-1,4-benzoxazin-2-one] | > 300 µM
20 | COc1ccc(C(=O)CC2=NCC3c4ccccc4CCN3C2=O)cc1 (stereo unspecified) [(3Z)-3-[2-(4-methoxyphenyl)-2-oxidanylidene-ethylidene]-2,6,7,11b-tetrahydro-1H-pyrazino[2,1-a]isoquinolin-4-one] | > 300 µM
21 | Cc1ccc(C(=O)Cc2nc3ccccc3oc2=O)cc1 [(3Z)-3-[2-(4-methylphenyl)-2-oxidanylidene-ethylidene]-4H-1,4-benzoxazin-2-one] | > 300 µM
22 | Cc1ccc2oc(=O)c(CC(=O)c3cccs3)nc2c1 [(3Z)-3-[2-keto-2-(2-thienyl)ethylidene]-6-methyl-4H-1,4-benzoxazin-2-one] | 21.3 µM
23 | Cc1ccc(C(=O)Cc2nc3cc(C)ccc3oc2=O)cc1 [(3Z)-3-[2-keto-2-(p-tolyl)ethylidene]-6-methyl-4H-1,4-benzoxazin-2-one] | 7.64 µM
24 | Cc1ccc(NC=C2SC(=O)c3ccccc32)c(C)c1 [(3Z)-3-[(2,4-dimethylanilino)methylene]isobenzothiophen-1-one] | > 300 µM
25 | O=C(Cc1nc2ccccc2n(-c2ccccc2)c1=O)c1ccccc1 [(3Z)-3-phenacylidene-1-phenyl-4H-quinoxalin-2-one] | 78.2 µM
26 | O=C(Cc1nc2cc(Cl)ccc2oc1=O)c1cccs1 [(3Z)-6-chloranyl-3-(2-oxidanylidene-2-thiophen-2-yl-ethylidene)-4H-1,4-benzoxazin-2-one] | 230 µM
27 | O=C(Cc1nc2cc(Cl)ccc2oc1=O)c1ccco1 [(3Z)-6-chloranyl-3-[2-(furan-2-yl)-2-oxidanylidene-ethylidene]-4H-1,4-benzoxazin-2-one] | > 300 µM
28 | Cc1c(NC=C2C(=O)N(C)C(=O)c3ccccc32)c(=O)n(-c2ccccc2)n1C [(4E)-4-[[(1,5-dimethyl-3-oxo-2-phenyl-4-pyrazolyl)amino]methylidene]-2-methylisoquinoline-1,3-dione] | > 300 µM
29 | COc1ccc(OC)c(N2C(=O)NC(=O)C(=Cc3c[nH]c4ccccc34)C2=O)c1 [(5E)-1-(2,5-dimethoxyphenyl)-5-(1H-indol-3-ylmethylene)pyrimidine-2,4,6(1H,3H,5H)-trione] | > 300 µM
30 | O=C1NC(=O)N(Cc2ccccc2Cl)C(=O)C1=CNc1ccc(F)cc1 [(5E)-1-(2-chlorobenzyl)-5-[(4-fluoroanilino)methylene]barbituric acid] | > 300 µM
31 | Cc1c(NC=C2C(=O)NC(=O)N(Cc3ccco3)C2=O)c(=O)n(-c2ccccc2)n1C [(5E)-1-(2-furfuryl)-5-[[(3-keto-1,5-dimethyl-2-phenyl-3-pyrazolin-4-yl)amino]methylene]barbituric acid] | > 300 µM
